Assay results: the supplement of paper PMC10307832

Legend:
Test in all cases: relative viability (nuclei count vs DMSO), 5 days (fraction); higher = more cells survive
XMD14-99 + Lapatinib = compound: CN1CCN(CC1)C2=CC(=C(C=C2)NC3=NC(=C(S3)C(=O)C4=C(C=CC=C4Cl)Cl)N)OC [XMD14-99] + CS(=O)(=O)CCNCc1ccc(-c2ccc3ncnc(Nc4ccc(OCc5cccc(F)c5)c(Cl)c4)c3c2)o1 [Lapatinib] (partner 2 µM)
Outline: (§1)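 Relative viability is defined as nuclei in treated wells over nuclei in vehicle wells. Duplicate plates were run and medians reported. Lung cancer cell lines in 1536-well plates were dosed by pin tool one day after seeding, with one drug or with a fixed anchor-drug dose plus five library-drug doses (not always all listed) in √10 steps, and nuclei were counted after 5 days.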

AZD1208 + Lapatinib = compound: N[C@@H]1CCCN(c2c(/C=C3\SC(=O)NC3=O)cccc2-c2ccccc2)C1 [AZD1208] + CS(=O)(=O)CCNCc1ccc(-c2ccc3ncnc(Nc4ccc(OCc5cccc(F)c5)c(Cl)c4)c3c2)o1 [Lapatinib] (partner 2 µM)
Outline: as §1

XMD14-99 + Pictilisib = compound: CN1CCN(CC1)C2=CC(=C(C=C2)NC3=NC(=C(S3)C(=O)C4=C(C=CC=C4Cl)Cl)N)OC [XMD14-99] + CS(=O)(=O)N1CCN(Cc2cc3nc(-c4cccc5[nH]ncc45)nc(N4CCOCC4)c3s2)CC1 [Pictilisib] (partner 1 µM)
Outline: as §1

AZD1208 + Alpelisib = compound: N[C@@H]1CCCN(c2c(/C=C3\SC(=O)NC3=O)cccc2-c2ccccc2)C1 [AZD1208] + Cc1nc(NC(=O)N2CCC[C@H]2C(N)=O)sc1-c1ccnc(C(C)(C)C(F)(F)F)c1 [Alpelisib] (partner 2 µM)
Outline: as §1

Row | Cell Line | relative viability (XMD14-99 + Lapatinib; first compound 0.08 µM) | relative viability (XMD14-99 + Lapatinib; first compound 0.8 µM) | relative viability (XMD14-99 + Lapatinib; first compound 2.53 µM) | relative viability (XMD14-99 + Lapatinib; first compound 8 µM) | relative viability (AZD1208 + Lapatinib; first compound 0.08 µM) | relative viability (AZD1208 + Lapatinib; first compound 0.253 µM) | relative viability (AZD1208 + Lapatinib; first compound 0.8 µM) | relative viability (AZD1208 + Lapatinib; first compound 2.53 µM) | relative viability (AZD1208 + Lapatinib; first compound 8 µM) | relative viability (XMD14-99 + Pictilisib; first compound 0.08 µM) | relative viability (XMD14-99 + Pictilisib; first compound 0.8 µM) | relative viability (XMD14-99 + Pictilisib; first compound 2.53 µM) | relative viability (XMD14-99 + Pictilisib; first compound 8 µM) | relative viability (AZD1208 + Alpelisib; first compound 0.08 µM) | relative viability (AZD1208 + Alpelisib; first compound 0.253 µM) | relative viability (AZD1208 + Alpelisib; first compound 0.8 µM) | relative viability (AZD1208 + Alpelisib; first compound 2.53 µM) | relative viability (AZD1208 + Alpelisib; first compound 8 µM)
1 | HCC-44 | 1.12 | 0.951 | 1.09 | 0.861 | 1.01 | 0.987 | 1.06 | 0.999 | 0.947 | 0.6 | 0.655 | 0.568 | 0.626 | 0.722 | 0.854 | 0.744 | 0.695 | 0.626
2 | HCC-827 | 0.182 | 0.205 | 0.188 | 0.197 | 0.15 | 0.192 | 0.189 | 0.173 | 0.226 | 1.1 | 0.895 | 0.917 | 0.998 | 0.969 | 1.04 | 0.915 | 0.859 | 0.893
3 | NCI-H2405 | 1.1 | 1.16 | 0.971 | 0.778 | 1.12 | 1.05 | 0.984 | 1.04 | 0.841 | 0.39 | 0.414 | 0.457 | 0.248 | 0.692 | 0.727 | 0.637 | 0.728 | 0.723
4 | PC-3 [JPC-3] | 0.491 | 0.443 | 0.41 | 0.387 | 0.424 | 0.412 | 0.451 | 0.413 | 0.389 | 0.793 | 0.73 | 0.717 | 0.586 | 1.07 | 1.07 | 1 | 1.1 | 0.946
5 | NCI-H1651 | 0.779 | 0.823 | 0.79 | 0.705 | 0.805 | 0.784 | 0.717 | 0.643 | 0.62 | 0.547 | 0.521 | 0.593 | 0.461 | 0.848 | 0.921 | 0.785 | 0.732 | 0.677
6 | HARA | 0.701 | 1.03 | 0.647 | 0.362 | 0.727 | 0.61 | 0.686 | 0.737 | 0.594 | 0.35 | 0.382 | 0.222 | 0.298 | 0.747 | 0.794 | 0.671 | 0.754 | 0.747
7 | NCI-H1650 | 0.702 | 1.03 | 0.725 | 0.619 | 0.777 | 0.878 | 0.735 | 0.602 | 0.667 | 0.561 | 0.67 | 0.505 | 0.328 | – | – | – | – | –
8 | NCI-H1395 | 0.985 | 0.958 | 1.04 | 0.809 | 1.12 | 0.918 | 0.945 | 1.1 | 0.812 | 0.626 | 0.67 | 0.585 | 0.535 | 0.925 | 1.07 | 1.1 | 1.24 | 0.851
9 | NCI-H1993 | 0.881 | 0.767 | 0.749 | 0.745 | – | 0.749 | 0.689 | 0.794 | 0.75 | 0.888 | 0.759 | 0.766 | 0.798 | – | 0.608 | 0.683 | 0.737 | 0.63
10 | LU99A | 0.94 | 0.976 | 0.879 | 0.695 | 0.864 | 0.985 | 0.937 | 0.919 | 0.728 | 0.257 | 0.304 | 0.267 | 0.262 | 0.497 | 0.481 | 0.462 | 0.429 | 0.345
11 | NCI-H1355 | 1.03 | 0.958 | 1.01 | 0.61 | 1.04 | 0.995 | 0.777 | 1.09 | 0.71 | 0.483 | 0.439 | 0.378 | 0.327 | 0.826 | 0.832 | 0.704 | 0.771 | 0.64
12 | HCC-78 | 0.911 | 0.751 | 0.858 | 0.648 | 0.779 | 0.888 | 0.621 | 0.845 | 0.966 | 0.221 | 0.224 | 0.2 | 0.191 | 0.329 | 0.339 | 0.27 | 0.257 | 0.266
13 | NCI-H1563 | 0.85 | 1.1 | 0.906 | 0.824 | 0.918 | 1 | 1.02 | 1.01 | 0.915 | 0.683 | 0.632 | 0.666 | 0.568 | 0.898 | 0.826 | 0.954 | 0.951 | 0.834
14 | HCC-15 | 0.867 | 0.894 | 0.792 | 0.611 | 0.871 | 0.858 | 0.874 | 0.858 | 0.831 | 0.727 | 0.778 | 0.703 | 0.495 | 0.742 | 0.823 | 0.557 | 0.664 | 0.584
15 | EKVX | 0.187 | 0.18 | 0.193 | 0.163 | 0.194 | 0.191 | 0.194 | 0.168 | 0.176 | 0.422 | 0.488 | 0.487 | 0.35 | 0.866 | 0.936 | 0.775 | 0.802 | 0.71
16 | LCLC-103H | – | – | – | – | – | – | – | – | – | 0.58 | 0.731 | 0.558 | 0.454 | 0.904 | 0.985 | 0.863 | 0.884 | 0.774
17 | ChaGo-K-1 | – | – | – | – | – | – | – | – | – | 0.811 | 0.703 | 0.67 | 0.509 | – | – | – | – | –
18 | NCI-H441 | – | – | – | – | – | – | – | – | – | 0.451 | 0.442 | 0.51 | 0.283 | 0.55 | 0.787 | 0.617 | 0.466 | 0.446
